Data taken from US7977403B2, “Antiseptic containing silicone elastomers” (Bayer Innovation GmbH, priority 2006, dated 2011).

Tested on: L 929 mouse fibroblast cells
Assay: Biocompatibility (cytotoxicity) test of material extract, DIN ISO 10993-5
Assay type: cell-based
Conditions: final concentration 1%, 48 h
Protocol: Biocompatibility Tests as Specified in DIN ISO 10993-5 (1999), EN 30993-5 (1994) The catheter shafts from Example 13 were for this purpose extracted non-sterile at 37° C. and 5% pCO2 in extraction medium (DMEM including antibiotics without FCS) for 24 h. The surface-volume ratio was 1 cm^2/ml of extraction medium. After completion of the extraction, the extraction medium was sterilized by filtration and supplemented with sterile FCS (final concentration: 10% FCS in the extraction medium). The FCS-supplemented extraction medium was put sterile on precultured L 929 mouse fibroblast cells and incubated at 37° C., 5% pCO2 for 48 h. The extract was subjected to quadruplicate parallel testing. Triton X 100 was added to the L929 cells used as toxic positive control (final concentration 1%). Cell culture medium served as non-toxic negative control. After the 48-hour incubation, the release of lactate dehydrogenase (LDH) in the cell culture supernatant was measured by a photometric method. The cells were then subjected to alkaline lysis and the protein content was measured by the Bradford method. The cells were fixed and stained with methylene blue to determine the cell count. After acidic extraction of the methylene blue, the dye content was ascertained by photometry and the extinction was compared with a standard curve in order to determine the cell count on the basis of the dye concentration. Results are shown at FIG. 12.

Triton X 100
Protein content relative to negative control (Bradford method): 6.8 % of the negative control value
Specific LDH activity increase compared with the negative control (cell culture supernatant): more than 31 fold
Cell count relative to negative control (methylene blue): 0.5 % of the negative control value
